Measured values published in PubChem BioAssay AID652041 (Broad Institute, 2013).
Activity calls are given as the source filed them.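 The calls were made as follows: active = fitted curve reaching a 35% signal drop at a concentration under 10 µM, within twice the top tested dose; inconclusive = no clear call, values can overlap the other calls; inactive = the rest, including activity opposite to the expected direction.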

System: not listed separately
Experiment: antimalarial activity against intraerythrocytic HB3 parasites – HB3 strain, red blood cells, SYBR Green, cherry-picked, dose response (AID 652041);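 also: parasites exposed to compound for 72 hours before the DNA read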
Settings: P. falciparum HB3 in RBCs, SYBR Green DNA fluorescence; at 50 µM (top of the series)
With `COc1ccc(N(C(=O)c2ccncc2)S(=O)(=O)c2ccc(F)cc2)cc1` the activity change, negative = inhibition was -13.3% (inactive). With `Cc1nc2ccc(C(=O)NCc3ccc4c(c3)OCO4)cc2s1` the activity change, negative = inhibition was -24.7% (inactive). In the case of `CCCCn1c(=O)c(C(=O)NCc2ccncc2)c(O)c2ccccc21`, the activity change, negative = inhibition is reported as -14% (inactive). In the case of `CCOc1ccc(N/N=C(/C#N)C(N)=O)cc1`, the activity change, negative = inhibition is reported as -12.5% (inactive). With `Oc1c(Br)cc(-c2ccccc2)cc1Br` the activity change, negative = inhibition was -16% (inactive).

System: P. falciparum HB3 in RBCs, SYBR Green DNA fluorescence
Experiment: as above
Settings: not given
`O=C(Nc1cc(Oc2ccc(Cl)cc2)cc([N+](=O)[O-])c1)c1ccco1` showed an AC35 of 2.14 µM. For `CCOC(=O)c1cnc(-n2nc(C)cc2C)nc1NC1CCCC1`, the AC35 was 4.23 µM. With `[O-][n+]1cccc2c(Br)cc(Br)c(O)c21` the AC35 was 2.77 µM. With `NC(=O)N=Nc1c2[nH]c3ccccc3nc-2c2ccccc12` the AC35 was 21.1 µM. Compound `CN(C)c1nc(SCc2ccc(Cl)cc2)nc2c1CCCC2` has an AC35 of 33.5 µM. With `CCC(C)n1ncn(-c2ccc(N3CCN(c4ccc(OCC5COC(Cn6cncn6)(c6ccc(Cl)cc6Cl)O5)cc4)CC3)cc2)c1=O` (stereo unspecified) the AC35 was 3.81 µM. `CCCCOC(=O)/C=C/c1ccc(OC(=O)OC)c(OC(=O)OC)c1` showed an AC35 of 11 µM. `Cc1ccsc1/C=C/c1ccc2cccc(O)c2n1` showed an AC35 of 11.9 µM. With `COC(=O)C1=C(C)NC(C)=C(C(=O)OCC(C)C)C1c1ccccc1[N+](=O)[O-]` (stereo unspecified) the AC35 was 4.63 µM. Compound `O=[N+]([O-])c1ccc2c(OCc3nnc(-c4ccccc4Br)o3)ncnc2c1` has an AC35 of 21.8 µM. For `CC[n+]1c(/C=C/C=C/c2ccc(N(C)C)cc2)sc2ccccc21`, the AC35 was 2.68 µM. `Oc1ccc(N=Nc2ccc3c(c2)OCCO3)c2cccnc12` showed an AC35 of 0.854 µM. `c1ccc(-c2ccc(SCc3cccnc3)nn2)nc1` showed an AC35 of 35.5 µM. `Cc1cc(C(=O)COC(=O)Cc2n[nH]c(=O)c3ccccc23)c(C)n1-c1cccc(C(F)(F)F)c1` showed an AC35 of 4.22 µM. In the case of `CC(C)(C)n1nc(Cc2cccc3ccccc23)c2c(N)ncnc21`, the AC35 is reported as 23.6 µM. `Cc1c(Cc2ccccc2)c(NCCN(C)C)n2c(nc3ccccc32)c1C#N` gave an AC35 of 6.66 µM. Compound `O=C(COc1ccccc1F)Nc1nc(-c2ccccn2)cs1` has an AC35 of 12 µM. Compound `Clc1ccc(C(Cn2ccnc2)OCc2c(Cl)cccc2Cl)c(Cl)c1` (stereo unspecified) has an AC35 of 2.36 µM. For `CCC(=O)NC(c1ccco1)c1cc(Cl)c2cccnc2c1O` (stereo unspecified), the AC35 was 0.185 µM. With `Cc1ccc2c(C)c3ccc4ccccc4c3c[n+]2c1` the AC35 was 0.0701 µM. With `O=C(Nc1nnc(SCc2ccc(F)cc2)s1)c1ccccn1` the AC35 was 1.93 µM. Compound `CCCCC(=O)NC(=S)NNC(=O)CCc1ccccc1` has an AC35 of 23 µM. In the case of `CN(Cc1ccc(Cl)s1)C(=O)CCl`, the AC35 is reported as 5.21 µM. `Cc1cc(/C=C2\SC(=S)N(C)C2=O)c(C)n1-c1ccc(O)cc1` gave an AC35 of 9.39 µM. With `O/N=C/c1cc(Br)ccc1OCc1ccccc1F` the AC35 was 29.2 µM. `Cc1nc(-c2ccccn2)nc(N(C)c2ccccc2)c1Cl` showed an AC35 of 6.1 µM. With `Cc1nn(CCC#N)c(N)c1C1(O)C(=O)Nc2c(Cl)cc(Cl)cc21` (stereo unspecified) the AC35 was 7.41 µM. In the case of `CC12CC3(C)CC(C)(C1)CC(NC(=O)N1CCCC1)(C2)C3`, the AC35 is reported as 14.9 µM. Work on `COC(=O)COC(=O)c1ccccc1NC(=O)c1ccccc1` yielded an AC35 of 25.8 µM. `CC1(C)C2CCC1(C)C(OC(=O)c1ccc(O)cc1)C2` (stereo unspecified) showed an AC35 of 11.6 µM. Compound `Cc1cc(C)c(C(=O)CC(=O)c2cccnc2)c(C)c1` has an AC35 of 8.29 µM. `O=C(c1ccccc1)c1ccc(Cn2cc(-c3ccccc3)nn2)cc1` gave an AC35 of 40.3 µM. Work on `Cc1ccc(Nc2cc(C)nn2-c2nc(C)cc(C)n2)cc1` yielded an AC35 of 2.75 µM. With `CC1=CC(=O)C=C(C)C1=NOS(=O)(=O)c1ccccc1` the AC35 was 5.53 µM. Work on `C=CCOC(Cn1ccnc1)c1ccc(Cl)cc1Cl` (stereo unspecified) yielded an AC35 of 7.38 µM. In the case of `COc1cccc(CC(=O)Nc2ccc3nc(C)sc3c2)c1`, the AC35 is reported as 43.9 µM. In the case of `CC(=O)C1=C(c2cccc([N+](=O)[O-])c2)N(C(C)=O)n2c(C)nnc2S1`, the AC35 is reported as 0.59 µM. `Cc1nc(SCc2ccc(OCCC(C)C)cc2)n[nH]1` showed an AC35 of 13.1 µM. Work on `CCCc1cc(C(N)=O)c(NC(=O)c2cc(C)on2)s1` yielded an AC35 of 39.7 µM. With `COc1cccc(/C=N/Nc2ncnc3scc(-c4ccccc4)c23)c1O` the AC35 was 1.7 µM. In the case of `C=CCc1ccc(O)c(-c2ccc(O)c(CC=C)c2)c1`, the AC35 is reported as 14.7 µM. `O=C(Nc1nnc(-c2ccccc2)o1)c1ccc(Cl)cc1` gave an AC35 of 10.7 µM. For `Nc1nc(-c2ccc(Oc3ccccc3)cc2)cs1`, the AC35 was 30.3 µM. For `C(=C1c2ccccc2-c2ccccc21)c1ccncc1`, the AC35 was 18.2 µM. `Cc1cccc(Oc2nc(-c3ccccn3)nc3ccccc23)c1` gave an AC35 of 6.06 µM. Compound `OCCN(CCO)c1cc2c3ccccc3ccc2c2ccccc12` has an AC35 of 1.21 µM. For `O=C(/C(=N/N=C/c1ccc(O)c(O)c1O)c1ccccc1)c1ccccc1`, the AC35 was 3.7 µM. `O=C(N/N=C/c1cc(Cl)cc([N+](=O)[O-])c1O)c1ccccc1NS(=O)(=O)c1cccs1` gave an AC35 of 41.5 µM. Compound `O=S(=O)(c1ccc(Cl)cc1)N1CCC2(CC1)OCCN2S(=O)(=O)c1cccs1` has an AC35 of 20 µM. Compound `CC/C(=N/NC(=O)c1ccccc1O)c1c(C)[nH]n(-c2ccccc2)c1=O` has an AC35 of 28.1 µM. For `CC(/C=N/n1c(COc2ccccc2)n[nH]c1=S)=C\c1ccccc1`, the AC35 was 42.2 µM. `Cc1ccc(-n2nnnc2SCC(=O)N2CCc3ccccc3C2)c(C)c1` showed an AC35 of 28.7 µM. `COc1ccc(O)c(C(=O)CC(=O)c2ccc(F)cc2)c1` gave an AC35 of 16.1 µM. `O=[N+]([O-])c1ccc(Sc2cccc[n+]2[O-])c2nonc12` gave an AC35 of 1.41 µM. In the case of `O=C(NC(=S)N(CCc1ccccc1)CCc1ccccc1)c1ccco1`, the AC35 is reported as 13.3 µM. `Oc1ccccc1-c1cc(-c2ccc3c(c2)OCCO3)n[nH]1` showed an AC35 of 9.9 µM. `O=CC1=C(c2ccccc2)Oc2ccccc2O1` showed an AC35 of 7.46 µM. Work on `Cc1ccc(S(=O)(=O)Nc2ccc(O)c3cccnc23)cc1` yielded an AC35 of 6.27 µM. `O=C(N/N=C/c1ccc[nH]1)c1sc2ccccc2c1Cl` gave an AC35 of 15.8 µM. `O=Cc1cc(N=Nc2ccccc2Cl)ccc1O` gave an AC35 of 2.27 µM. In the case of `Cc1cc(-c2ccccc2)n(-c2cc(N/N=C/c3ccccc3O)ncn2)n1`, the AC35 is reported as 3.85 µM. For `CCCCC(=O)NC(c1ccco1)c1cc(Cl)c2cccnc2c1O` (stereo unspecified), the AC35 was 1.62 µM. Work on `COc1ccc(O)c(C(=O)CC(=O)c2ccccc2C)c1` yielded an AC35 of 13.9 µM. `O=[N+]([O-])c1cc(C(F)(F)F)ccc1NCCc1c[nH]c2ccc(O)cc12` gave an AC35 of 24.6 µM. For `CCCCCCCc1ccc(-c2ccc(O)cc2)nc1`, the AC35 was 4.88 µM. With `Oc1c(CN2CCCC2)cc(COCc2ccccc2)c2cccnc12` the AC35 was 7.31 µM. For `Cc1cccc(N2CCN(C(=O)C3COc4ccccc4O3)CC2)c1C` (stereo unspecified), the AC35 was 38.9 µM. Work on `C=C(C)COc1ccc(-c2[nH]ncc2-c2ccccc2)c(O)c1` yielded an AC35 of 1.89 µM. For `O=S1OC(c2ccccc2)c2cc(Cl)ccc21` (stereo unspecified), the AC35 was 16.8 µM. With `CCCCCCCCCCOC(=O)Cn1c(COc2ccccc2OC)[n+](C)c2ccccc21` the AC35 was 0.346 µM. In the case of `CN(c1ccccc1)c1nc(N2CCCC2)nc(-n2ccnc2)n1`, the AC35 is reported as 11.1 µM. For `CCCCNc1c(-c2cccc(-c3ccc(OC)cc3)c2)nc2ccc(C)cn12`, the AC35 was 1.65 µM. For `O=C(c1ccc(-c2ccccc2)cc1)C1CCCN(C(=O)c2cncs2)C1` (stereo unspecified), the AC35 was 7.38 µM. In the case of `O=c1c2ccccc2nc(-c2cccc(Cl)c2)n1O`, the AC35 is reported as 28.2 µM. With `COc1ccc(C(=O)On2c(-c3ccc(Br)cc3)nc3ccccc3c2=O)cc1` the AC35 was 9.45 µM. Work on `Nc1cc2c3ccccc3ccc2c2ccccc12` yielded an AC35 of 0.249 µM. For `C=CCNC(=S)N1CCC(Cc2ccccc2)CC1`, the AC35 was 28 µM. With `Cc1ccc(Cl)cc1NC1=C/C(=N\S(=O)(=O)c2cccs2)c2ccccc2C1=O` the AC35 was 0.119 µM. For `Cc1c(C2(O)CCCCC2)[nH]c2ccc(C(F)(F)F)cc12`, the AC35 was 17.3 µM. `CCN1C(=O)C(CC(=O)Nc2ccccc2Cl)N(NC(=O)c2cccc(F)c2)C1=S` (stereo unspecified) gave an AC35 of 21.8 µM. With `CN(C)c1ccc(C=c2c3cc(O)ccc3n3c2cc(-c2ccccc2)[n+]3C)cc1` the AC35 was 0.247 µM. `CC(C)N1CCN(c2ccc(OC[C@H]3CO[C@](Cn4cncn4)(c4ccc(Cl)cc4Cl)O3)cc2)CC1` gave an AC35 of 7.37 µM. With `CC(=O)Nc1cccc(NC(=O)CSc2ccc(-c3ccccn3)nn2)c1` the AC35 was 17 µM. In the case of `O=C(O)c1ccccc1NC(c1ccccc1)c1ccc2cccnc2c1O` (stereo unspecified), the AC35 is reported as 6.46 µM. Work on `O=C(NOC(=O)c1ccccc1)c1ccccc1` yielded an AC35 of 20.1 µM. Compound `COc1ccc(-c2oc3ccccc3c2C#Cc2cncn2C)cc1` has an AC35 of 0.87 µM. In the case of `Cc1cc(Cl)ccc1C(=O)C1CCCN(C(=O)c2cncs2)C1` (stereo unspecified), the AC35 is reported as 33.5 µM. With `NC(=Nc1nc(-c2ccccn2)cc2ccccc12)c1ccccn1` the AC35 was 0.22 µM. `CN(C)c1ccc(C=c2c3ccccc3n3c2c2c([n+]3C)CCCC2)cc1` gave an AC35 of 0.228 µM. With `COc1cc(/C=N/O)cc(Br)c1OCc1cccc(Cl)c1` the AC35 was 28.1 µM. For `CC1CCN(c2nc(-c3ccncc3)nc3ccccc23)CC1`, the AC35 was 8.17 µM. In the case of `O=C(c1ccccc1)c1coc2c1C(=O)c1ccccc1C2=O`, the AC35 is reported as 1.49 µM. With `Clc1nc(-c2ccccn2)nc2scc(-c3ccccc3)c12` the AC35 was 2.39 µM. For `O=C(CSc1ccc(-c2ccccn2)nn1)NCc1ccc(F)cc1`, the AC35 was 37.5 µM. Work on `O=C(c1ccc(Cl)cc1)N1CCN(c2ccc(F)cc2)CC1` yielded an AC35 of 35.2 µM. `CC(C)N1CCN(c2ccc(OCC3COC(Cn4cncn4)(c4ccc(Cl)cc4Cl)O3)cc2)CC1` (stereo unspecified) gave an AC35 of 4.53 µM. Compound `Cc1ccc(NC(=S)c2nc3ccccc3[nH]2)c(C)c1` has an AC35 of 5.68 µM. Compound `O=C(CN1CC[n+]2c(-c3cccs3)csc21)c1ccc(-c2ccccc2)cc1` has an AC35 of 1.46 µM. In the case of `O=c1cc(CSc2ccc(Cl)cc2)nc(-c2ccccn2)[nH]1`, the AC35 is reported as 2.3 µM. With `Cc1cccc(NC(=S)NC(C)CCc2ccccc2)c1` (stereo unspecified) the AC35 was 12.7 µM. Compound `COc1ccc(-c2cc(C(=O)N3CCN(c4ccccc4F)CC3)c3ccccc3n2)c(OC)c1` has an AC35 of 6.74 µM. For `C[C@@]12CCC3[C@@](CCC4[C@@]3(C)CCC[C@@]4(C)C(=O)NCc3ccccc3)(CC1=O)C2` (stereo partly specified), the AC35 was 21.7 µM. `Cc1[nH]n(-c2ccccc2)c(=O)c1/C=N/Nc1nncc(-c2ccccc2)n1` gave an AC35 of 1.97 µM. Compound `CCN(CC)c1ccc(/C=N/NC(=O)c2c(Cl)cnn2C)c(O)c1` has an AC35 of 2.66 µM. Work on `CC1(C)C=Cc2c(ccc3c2OC[C@@H](c2ccc(O)cc2O)C3)O1` yielded an AC35 of 13.8 µM. With `CCC1=NN(C(=O)c2cccc(Br)c2)C(O)(c2ccc(Br)cc2)C1` (stereo unspecified) the AC35 was 12.3 µM. Compound `CCC(NC(=S)NCc1ccc(F)cc1)c1ccc(C(C)C)cc1` (stereo unspecified) has an AC35 of 11.3 µM. `COc1cnc(-c2ccccn2)nc1Oc1ccc(C(C)(C)C)cc1` gave an AC35 of 4.82 µM. In the case of `CC(=O)Oc1ccc(OC(C)=O)c(SCCCCCCl)c1`, the AC35 is reported as 2.56 µM. In the case of `O=C1c2cccc(Cl)c2C(=O)c2c1cccc2N1CCCC1`, the AC35 is reported as 20.9 µM. Work on `O=C(NCc1ccncc1)c1ccccc1Nc1ccc(SC(F)F)cc1` yielded an AC35 of 21.5 µM.
